Reference: article PMC7026418, “The kinase polypharmacology landscape of clinical PARP inhibitors” (Scientific Reports, 2020)
Where two headings read alike, the source gives them in different places.

How the values were obtained:
Experiment in all cases: biochemical
Set-up in all cases: DiscoveRx KINOMEscan active site-directed competition binding; percent of control kinase bound to immobilised ligand
AXL = molecular target: T1, AXL (Homo sapiens, UniProt P30530)
T1 sequence (P30530 1-894): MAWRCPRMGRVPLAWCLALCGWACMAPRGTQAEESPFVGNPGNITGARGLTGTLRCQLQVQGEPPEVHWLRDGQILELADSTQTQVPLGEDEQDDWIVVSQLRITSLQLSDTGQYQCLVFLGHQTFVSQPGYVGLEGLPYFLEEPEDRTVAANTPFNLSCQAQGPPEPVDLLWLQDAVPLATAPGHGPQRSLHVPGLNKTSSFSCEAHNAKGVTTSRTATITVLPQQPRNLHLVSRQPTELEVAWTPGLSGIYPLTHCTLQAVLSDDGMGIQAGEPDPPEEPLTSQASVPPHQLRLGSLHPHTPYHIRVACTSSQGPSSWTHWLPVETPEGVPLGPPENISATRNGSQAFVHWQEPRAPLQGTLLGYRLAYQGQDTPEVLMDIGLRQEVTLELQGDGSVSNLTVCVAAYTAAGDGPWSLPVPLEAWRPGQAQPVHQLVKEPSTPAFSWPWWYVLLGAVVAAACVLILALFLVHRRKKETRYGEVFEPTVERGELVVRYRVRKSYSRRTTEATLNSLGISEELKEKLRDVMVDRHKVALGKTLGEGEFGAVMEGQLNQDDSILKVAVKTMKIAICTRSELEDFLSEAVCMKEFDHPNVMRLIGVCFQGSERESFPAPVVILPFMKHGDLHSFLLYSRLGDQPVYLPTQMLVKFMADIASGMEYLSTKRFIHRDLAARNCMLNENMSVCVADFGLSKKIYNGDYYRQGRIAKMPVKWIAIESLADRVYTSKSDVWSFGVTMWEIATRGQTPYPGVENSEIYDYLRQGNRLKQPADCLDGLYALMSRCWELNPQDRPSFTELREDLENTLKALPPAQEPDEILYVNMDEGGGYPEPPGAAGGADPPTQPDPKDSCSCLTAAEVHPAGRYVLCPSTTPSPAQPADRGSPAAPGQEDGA

ERN1 = ERN1 (Homo sapiens, UniProt O75460)
Sequence of ERN1 (O75460 whole entry): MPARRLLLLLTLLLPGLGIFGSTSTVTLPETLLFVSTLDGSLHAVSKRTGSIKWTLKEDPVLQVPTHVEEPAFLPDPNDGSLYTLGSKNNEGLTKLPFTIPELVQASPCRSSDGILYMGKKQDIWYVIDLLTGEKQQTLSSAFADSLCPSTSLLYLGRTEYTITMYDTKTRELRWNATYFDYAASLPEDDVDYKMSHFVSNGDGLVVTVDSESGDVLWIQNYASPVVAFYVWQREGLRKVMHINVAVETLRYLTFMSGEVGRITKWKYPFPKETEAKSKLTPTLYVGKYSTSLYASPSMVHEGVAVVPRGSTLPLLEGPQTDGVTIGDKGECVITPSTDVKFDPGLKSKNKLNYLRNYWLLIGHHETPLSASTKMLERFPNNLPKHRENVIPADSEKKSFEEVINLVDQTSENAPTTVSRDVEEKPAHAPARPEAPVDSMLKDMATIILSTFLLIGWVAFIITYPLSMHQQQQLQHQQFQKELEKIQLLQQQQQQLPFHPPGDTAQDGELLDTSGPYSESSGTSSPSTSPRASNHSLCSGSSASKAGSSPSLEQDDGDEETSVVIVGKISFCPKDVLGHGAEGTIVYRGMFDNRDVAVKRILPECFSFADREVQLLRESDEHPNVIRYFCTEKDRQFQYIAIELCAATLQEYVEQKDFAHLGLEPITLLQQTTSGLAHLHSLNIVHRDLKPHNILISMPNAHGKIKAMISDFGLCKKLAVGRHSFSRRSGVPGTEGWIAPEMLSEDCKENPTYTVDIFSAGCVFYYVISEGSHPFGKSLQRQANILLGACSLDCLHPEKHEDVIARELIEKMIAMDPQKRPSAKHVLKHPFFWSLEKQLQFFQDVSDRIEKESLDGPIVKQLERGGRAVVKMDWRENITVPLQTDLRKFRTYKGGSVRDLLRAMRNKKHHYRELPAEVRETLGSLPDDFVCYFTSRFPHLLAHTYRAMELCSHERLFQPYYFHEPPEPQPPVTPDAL

NEK7 = NEK7 (Homo sapiens, UniProt Q8TDX7)
Sequence of NEK7 (Q8TDX7 whole entry): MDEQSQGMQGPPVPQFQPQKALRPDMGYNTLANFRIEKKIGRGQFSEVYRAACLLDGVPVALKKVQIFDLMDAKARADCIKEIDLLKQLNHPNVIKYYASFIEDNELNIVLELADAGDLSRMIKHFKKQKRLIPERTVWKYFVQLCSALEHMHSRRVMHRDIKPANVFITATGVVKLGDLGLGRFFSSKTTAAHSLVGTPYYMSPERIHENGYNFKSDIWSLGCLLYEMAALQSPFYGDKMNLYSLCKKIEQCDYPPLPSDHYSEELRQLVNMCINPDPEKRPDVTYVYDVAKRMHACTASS

RIOK3 = molecular target: T2, RIOK3 (Homo sapiens, UniProt O14730)
T2 sequence (O14730 1-519): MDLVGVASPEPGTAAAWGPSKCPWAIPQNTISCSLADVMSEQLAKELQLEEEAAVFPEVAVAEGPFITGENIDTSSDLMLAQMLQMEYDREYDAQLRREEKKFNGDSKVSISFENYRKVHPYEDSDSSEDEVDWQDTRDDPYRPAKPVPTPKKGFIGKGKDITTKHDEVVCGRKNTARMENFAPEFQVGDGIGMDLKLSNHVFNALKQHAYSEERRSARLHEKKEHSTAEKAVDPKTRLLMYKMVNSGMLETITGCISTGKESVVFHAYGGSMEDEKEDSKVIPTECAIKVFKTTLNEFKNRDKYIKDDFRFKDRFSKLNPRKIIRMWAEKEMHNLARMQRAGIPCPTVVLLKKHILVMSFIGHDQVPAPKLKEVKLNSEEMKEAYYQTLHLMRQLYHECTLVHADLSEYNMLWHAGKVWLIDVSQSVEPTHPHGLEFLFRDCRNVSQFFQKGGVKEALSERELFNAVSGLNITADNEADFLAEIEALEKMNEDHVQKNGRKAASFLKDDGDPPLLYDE

ZAP70 = molecular target: T3, ZAP70 (Homo sapiens, UniProt P43403)
T3 sequence (P43403 1-619): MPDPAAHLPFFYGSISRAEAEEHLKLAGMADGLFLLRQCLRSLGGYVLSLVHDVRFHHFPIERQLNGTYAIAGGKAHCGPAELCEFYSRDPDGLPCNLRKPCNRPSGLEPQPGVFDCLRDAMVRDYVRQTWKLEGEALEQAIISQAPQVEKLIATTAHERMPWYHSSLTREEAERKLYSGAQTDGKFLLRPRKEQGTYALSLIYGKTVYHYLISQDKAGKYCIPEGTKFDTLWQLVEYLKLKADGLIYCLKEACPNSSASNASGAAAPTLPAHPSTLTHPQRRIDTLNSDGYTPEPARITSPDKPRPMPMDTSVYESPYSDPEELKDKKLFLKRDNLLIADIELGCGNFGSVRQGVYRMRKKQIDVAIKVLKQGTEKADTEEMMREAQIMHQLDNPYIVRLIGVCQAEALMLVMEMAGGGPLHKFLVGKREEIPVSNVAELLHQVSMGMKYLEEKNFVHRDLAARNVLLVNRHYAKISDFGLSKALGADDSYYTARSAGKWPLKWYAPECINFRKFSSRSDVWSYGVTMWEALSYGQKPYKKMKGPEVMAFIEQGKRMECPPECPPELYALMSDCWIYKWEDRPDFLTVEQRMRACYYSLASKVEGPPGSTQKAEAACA

p38-delta = molecular target: T4, p38-delta (Homo sapiens, UniProt O15264)
T4 construct: gene MAPK13
T4 sequence (O15264 1-365): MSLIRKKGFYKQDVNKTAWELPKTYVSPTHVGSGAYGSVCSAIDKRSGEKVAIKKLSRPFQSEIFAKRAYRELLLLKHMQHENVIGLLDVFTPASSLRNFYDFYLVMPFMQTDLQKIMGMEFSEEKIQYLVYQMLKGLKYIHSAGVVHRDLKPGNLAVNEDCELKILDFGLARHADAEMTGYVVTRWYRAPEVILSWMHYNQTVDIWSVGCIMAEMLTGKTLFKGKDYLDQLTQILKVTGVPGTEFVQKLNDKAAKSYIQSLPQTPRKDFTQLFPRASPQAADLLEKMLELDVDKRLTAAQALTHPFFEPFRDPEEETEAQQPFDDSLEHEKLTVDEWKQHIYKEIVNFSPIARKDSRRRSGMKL

[1] = read-out: Niraparib (MK-4827) / %Ctrl @ 10000nM
[2] = read-out: Olaparib / %Ctrl @ 10000nM
[3] = read-out: Rucaparib / %Ctrl @ 10000nM, binding competition, % of control
[4] = read-out: Talazoparib (BMN 673) / %Ctrl @ 10000nM

Q: What does the source list for NC(=O)c1cccc2cn(-c3ccc([C@@H]4CCCNC4)cc3)nc12 [Niraparib]?
A: percent of control binding at 10 µM (AXL; [1]): 59%; percent of control binding at 10 µM (ERN1; [1]): 100%; percent of control binding at 10 µM (NEK7; [1]): 88%; percent of control binding at 10 µM (RIOK3; [1]): 95%; percent of control binding at 10 µM (ZAP70; [1]): 100%; percent of control binding at 10 µM (p38-delta; [1]): 82%

Q: How did the percent of control binding at 10 µM (AXL; [2]) turn out when O=C(c1cc(Cc2n[nH]c(=O)c3ccccc23)ccc1F)N1CCN(C(=O)C2CC2)CC1 [Olaparib] was run?
A: The percent of control binding at 10 µM was 100%.

Q: What about the percent of control binding at 10 µM (ERN1; [2]) of the same compound?
A: The percent of control binding at 10 µM was 88%.

Q: What about the percent of control binding at 10 µM (NEK7; [2]) of the same compound?
A: Its percent of control binding at 10 µM is 98%.

Q: And the percent of control binding at 10 µM (RIOK3; [2])?
A: The percent of control binding at 10 µM was 100%.

Q: What about the percent of control binding at 10 µM (ZAP70; [2]) of the same compound?
A: The percent of control binding at 10 µM was 93%.

Q: And the percent of control binding at 10 µM (p38-delta; [2])?
A: The percent of control binding at 10 µM was 84%.

Q: Which results are given for CNCc1ccc(-c2[nH]c3cc(F)cc4c3c2CCNC4=O)cc1 [Rucaparib]?
A: percent of control binding at 10 µM (AXL; [3]): 82%; percent of control binding at 10 µM (ERN1; [3]): 75%; percent of control binding at 10 µM (NEK7; [3]): 100%; percent of control binding at 10 µM (RIOK3; [3]): 85%; percent of control binding at 10 µM (ZAP70; [3]): 80%; percent of control binding at 10 µM (p38-delta; [3]): 100%

Q: How did the percent of control binding at 10 µM (AXL; [4]) turn out when Cn1ncnc1[C@H]1c2n[nH]c(=O)c3cc(F)cc(c23)N[C@@H]1c1ccc(F)cc1 [Talazoparib] was run?
A: The percent of control binding at 10 µM was 100%.

Q: And the percent of control binding at 10 µM (ERN1; [4])?
A: The percent of control binding at 10 µM was 91%.

Q: And the percent of control binding at 10 µM (NEK7; [4])?
A: The percent of control binding at 10 µM was 80%.

Q: What about the percent of control binding at 10 µM (RIOK3; [4]) of the same compound?
A: Its percent of control binding at 10 µM is 100%.

Q: What about the percent of control binding at 10 µM (ZAP70; [4]) of the same compound?
A: Its percent of control binding at 10 µM is 100%.

Q: What about the percent of control binding at 10 µM (p38-delta; [4]) of the same compound?
A: The percent of control binding at 10 µM was 98%.
